Source: patent publication US20250042900A1 (priority 2022, published 2025)
Counter-ions that a name gives are not always drawn. Like-named read-outs stand apart in the source and are kept apart here.

What was measured:
5-HT1B receptors = molecular target: T1, 5-HT1B receptors (Homo sapiens, UniProt P28222); experiment: In vitro activity at 5-HT1B receptors, agonist mode (cAMP secondary messenger assay); assay type: cell-based
T1 construct: host or cells: cAMP Hunter cell line

[1] = molecular target: T2, 5-Hydroxytryptamine (Serotonin) Receptor 1B (5-HT1B) (Homo sapiens, UniProt P28222); experiment: cAMP secondary messenger assay, antagonist format; assay type: cell-based; details: read-out: IC50 (μM) Antag./Blocker/Inhibitor
T2 construct: host or cells: cAMP Hunter cell line
T2 sequence (P28222 whole entry): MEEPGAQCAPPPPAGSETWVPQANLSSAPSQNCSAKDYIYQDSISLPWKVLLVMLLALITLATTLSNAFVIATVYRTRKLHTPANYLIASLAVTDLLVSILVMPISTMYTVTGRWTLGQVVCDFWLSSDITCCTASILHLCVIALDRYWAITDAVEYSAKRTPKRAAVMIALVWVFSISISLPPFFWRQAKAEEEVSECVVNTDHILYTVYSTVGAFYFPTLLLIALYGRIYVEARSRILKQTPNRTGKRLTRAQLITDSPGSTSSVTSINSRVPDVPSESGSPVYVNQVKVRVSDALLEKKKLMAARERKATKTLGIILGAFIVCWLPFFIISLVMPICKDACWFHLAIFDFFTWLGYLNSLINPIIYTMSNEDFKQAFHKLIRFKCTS

[2] = molecular target: 5-Hydroxytryptamine (Serotonin) Receptor 2A (5-HT2A) (Homo sapiens, UniProt P28223); experiment: Calcium flux secondary messenger assay, antagonist format; assay type: cell-based; details: read-out: IC50 (μM) Antag./Blocker/Inhibitor
[3] = molecular target: 5-Hydroxytryptamine (Serotonin) Receptor 2B (5-HT2B) (Homo sapiens, UniProt P41595); experiment: Calcium flux secondary messenger assay, agonist format; assay type: cell-based; details: read-out: EC50 (μM) Agonist/Opener
[4] = molecular target: Adrenergic Receptor α1A (ADRA1A) (Homo sapiens, UniProt P35348); experiment: as above; assay type: cell-based; details: read-out: EC50 (μM) Agonist/Opener
Sequence of Adrenergic Receptor α1A (ADRA1A) (P35348 whole entry): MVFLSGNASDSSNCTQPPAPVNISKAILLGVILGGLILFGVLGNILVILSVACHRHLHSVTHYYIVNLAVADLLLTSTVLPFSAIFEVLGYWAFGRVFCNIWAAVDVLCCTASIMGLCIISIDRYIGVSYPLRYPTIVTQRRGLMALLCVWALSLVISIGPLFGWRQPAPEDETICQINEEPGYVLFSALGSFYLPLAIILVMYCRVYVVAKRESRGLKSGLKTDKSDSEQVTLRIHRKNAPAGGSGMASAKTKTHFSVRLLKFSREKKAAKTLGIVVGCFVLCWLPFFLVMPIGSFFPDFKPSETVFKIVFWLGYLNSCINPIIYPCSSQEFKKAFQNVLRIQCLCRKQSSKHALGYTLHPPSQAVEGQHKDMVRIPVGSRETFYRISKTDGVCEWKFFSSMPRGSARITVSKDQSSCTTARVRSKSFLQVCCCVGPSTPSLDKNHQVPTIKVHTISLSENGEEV

[5] = molecular target: Adrenergic Receptor α2A (ADRA2A) (Homo sapiens, UniProt P08913); experiment: cAMP secondary messenger assay, agonist format; assay type: cell-based; details: read-out: EC50 (μM) Agonist/Opener
Sequence of Adrenergic Receptor α2A (ADRA2A) (P08913 whole entry): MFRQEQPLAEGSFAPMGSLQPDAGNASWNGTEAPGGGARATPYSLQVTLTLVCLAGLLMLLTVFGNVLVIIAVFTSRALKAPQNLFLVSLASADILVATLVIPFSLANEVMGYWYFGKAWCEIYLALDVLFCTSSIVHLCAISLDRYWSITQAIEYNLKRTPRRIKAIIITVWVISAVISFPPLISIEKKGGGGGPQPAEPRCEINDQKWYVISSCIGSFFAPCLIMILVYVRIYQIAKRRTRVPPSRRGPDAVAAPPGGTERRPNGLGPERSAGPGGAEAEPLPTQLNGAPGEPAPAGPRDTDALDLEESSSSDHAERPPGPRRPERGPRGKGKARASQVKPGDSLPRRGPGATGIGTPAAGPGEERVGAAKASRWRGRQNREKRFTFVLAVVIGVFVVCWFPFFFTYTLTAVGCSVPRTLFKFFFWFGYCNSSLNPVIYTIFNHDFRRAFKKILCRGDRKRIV

[6] = molecular target: Adenosine Receptor A2A (ADORA2A) (Homo sapiens, UniProt P29274); experiment: Calcium flux secondary messenger assay, agonist format; assay type: cell-based; details: read-out: EC50 (μM) Agonist/Opener
Sequence of Adenosine Receptor A2A (ADORA2A) (P29274 whole entry): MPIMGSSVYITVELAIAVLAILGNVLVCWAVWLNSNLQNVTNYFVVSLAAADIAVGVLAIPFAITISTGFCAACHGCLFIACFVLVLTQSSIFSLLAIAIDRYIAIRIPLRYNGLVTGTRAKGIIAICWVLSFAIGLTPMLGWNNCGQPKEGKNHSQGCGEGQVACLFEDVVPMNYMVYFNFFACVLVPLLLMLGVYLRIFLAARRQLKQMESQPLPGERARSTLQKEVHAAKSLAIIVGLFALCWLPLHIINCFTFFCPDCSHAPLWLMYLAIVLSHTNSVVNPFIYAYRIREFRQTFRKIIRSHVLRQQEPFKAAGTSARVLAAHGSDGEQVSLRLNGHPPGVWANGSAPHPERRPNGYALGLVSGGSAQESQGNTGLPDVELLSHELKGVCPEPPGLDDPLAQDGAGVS

[7] = molecular target: Adrenergic Receptor β1 (ADRB1) (Homo sapiens, UniProt P08588); experiment: cAMP secondary messenger assay, antagonist format; assay type: cell-based; details: read-out: IC50 (μM) Antag./Blocker/Inhibitor
Sequence of Adrenergic Receptor β1 (ADRB1) (P08588 whole entry): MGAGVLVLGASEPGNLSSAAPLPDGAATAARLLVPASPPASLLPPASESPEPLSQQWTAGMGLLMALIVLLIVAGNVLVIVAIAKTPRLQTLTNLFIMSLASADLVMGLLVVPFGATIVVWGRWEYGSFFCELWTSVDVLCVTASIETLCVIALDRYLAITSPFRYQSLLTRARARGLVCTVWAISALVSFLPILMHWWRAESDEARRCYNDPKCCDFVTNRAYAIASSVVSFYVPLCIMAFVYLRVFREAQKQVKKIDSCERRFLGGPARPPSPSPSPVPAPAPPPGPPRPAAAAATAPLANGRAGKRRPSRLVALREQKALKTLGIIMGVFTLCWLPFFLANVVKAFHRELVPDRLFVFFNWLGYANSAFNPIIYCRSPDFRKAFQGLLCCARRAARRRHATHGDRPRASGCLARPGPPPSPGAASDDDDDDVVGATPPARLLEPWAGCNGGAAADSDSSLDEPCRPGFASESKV

[8] = molecular target: Arginine Vasopressin Receptor 1A (AVPR1A) (Homo sapiens, UniProt P37288); experiment: Calcium flux secondary messenger assay, agonist format; assay type: cell-based; details: read-out: EC50 (μM) Agonist/Opener
Sequence of Arginine Vasopressin Receptor 1A (AVPR1A) (P37288 whole entry): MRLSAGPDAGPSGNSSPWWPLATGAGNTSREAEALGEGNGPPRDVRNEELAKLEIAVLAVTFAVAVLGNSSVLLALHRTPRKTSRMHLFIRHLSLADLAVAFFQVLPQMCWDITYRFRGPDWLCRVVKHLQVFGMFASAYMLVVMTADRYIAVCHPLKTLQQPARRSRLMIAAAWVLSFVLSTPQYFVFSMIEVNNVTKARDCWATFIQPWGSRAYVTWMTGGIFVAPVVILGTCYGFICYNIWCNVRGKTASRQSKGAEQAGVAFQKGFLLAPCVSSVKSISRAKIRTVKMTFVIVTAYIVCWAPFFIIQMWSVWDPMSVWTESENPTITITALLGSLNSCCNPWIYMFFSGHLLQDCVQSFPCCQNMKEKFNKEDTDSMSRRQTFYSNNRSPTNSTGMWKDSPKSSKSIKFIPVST

[9] = molecular target: Muscarinic acetylcholine Receptor M1 (CHRM1) (Homo sapiens, UniProt P11229); experiment: as above; assay type: cell-based; details: read-out: EC50 (μM) Agonist/Opener
Sequence of Muscarinic acetylcholine Receptor M1 (CHRM1) (P11229 whole entry): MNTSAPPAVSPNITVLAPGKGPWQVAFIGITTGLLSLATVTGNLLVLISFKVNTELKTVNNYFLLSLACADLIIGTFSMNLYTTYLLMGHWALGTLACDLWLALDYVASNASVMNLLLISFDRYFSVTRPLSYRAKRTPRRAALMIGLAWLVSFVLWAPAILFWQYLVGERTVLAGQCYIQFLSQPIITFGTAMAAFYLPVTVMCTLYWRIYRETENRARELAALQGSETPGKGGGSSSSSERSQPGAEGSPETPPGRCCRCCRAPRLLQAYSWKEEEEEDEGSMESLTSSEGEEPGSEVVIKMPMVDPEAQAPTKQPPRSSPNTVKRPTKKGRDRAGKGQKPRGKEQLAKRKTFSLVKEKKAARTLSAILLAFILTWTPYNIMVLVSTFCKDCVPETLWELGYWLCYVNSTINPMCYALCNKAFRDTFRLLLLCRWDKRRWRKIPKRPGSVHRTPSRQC

[10] = molecular target: Nicotinic acetylcholine Receptor α4 β2 (nAChR(a4/b2)) (Homo sapiens, UniProt P17787+P43681); experiment: Ion channel assay, blocker format; assay type: cell-based; details: read-out: IC50 (μM) Antag./Blocker/Inhibitor
Sequence of Nicotinic acetylcholine Receptor α4 β2 (nAChR(a4/b2)) (P43681 29-627 limits assumed): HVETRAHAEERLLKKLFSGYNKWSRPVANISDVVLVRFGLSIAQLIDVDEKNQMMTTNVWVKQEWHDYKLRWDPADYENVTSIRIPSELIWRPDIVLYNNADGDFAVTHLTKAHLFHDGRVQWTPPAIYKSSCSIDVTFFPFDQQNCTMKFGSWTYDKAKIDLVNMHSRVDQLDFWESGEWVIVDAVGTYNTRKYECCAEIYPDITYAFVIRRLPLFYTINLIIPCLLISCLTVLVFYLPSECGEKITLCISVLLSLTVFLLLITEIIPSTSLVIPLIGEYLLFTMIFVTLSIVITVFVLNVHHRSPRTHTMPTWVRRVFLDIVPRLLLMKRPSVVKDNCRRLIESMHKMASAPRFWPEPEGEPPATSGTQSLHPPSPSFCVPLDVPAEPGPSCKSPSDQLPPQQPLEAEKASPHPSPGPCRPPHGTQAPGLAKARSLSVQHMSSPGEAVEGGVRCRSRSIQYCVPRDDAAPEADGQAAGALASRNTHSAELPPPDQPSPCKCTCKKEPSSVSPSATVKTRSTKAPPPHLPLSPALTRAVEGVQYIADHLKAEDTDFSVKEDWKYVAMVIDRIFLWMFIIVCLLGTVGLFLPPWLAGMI
Sequence of Nicotinic acetylcholine Receptor α4 β2 (nAChR(a4/b2)) (P17787 26-502): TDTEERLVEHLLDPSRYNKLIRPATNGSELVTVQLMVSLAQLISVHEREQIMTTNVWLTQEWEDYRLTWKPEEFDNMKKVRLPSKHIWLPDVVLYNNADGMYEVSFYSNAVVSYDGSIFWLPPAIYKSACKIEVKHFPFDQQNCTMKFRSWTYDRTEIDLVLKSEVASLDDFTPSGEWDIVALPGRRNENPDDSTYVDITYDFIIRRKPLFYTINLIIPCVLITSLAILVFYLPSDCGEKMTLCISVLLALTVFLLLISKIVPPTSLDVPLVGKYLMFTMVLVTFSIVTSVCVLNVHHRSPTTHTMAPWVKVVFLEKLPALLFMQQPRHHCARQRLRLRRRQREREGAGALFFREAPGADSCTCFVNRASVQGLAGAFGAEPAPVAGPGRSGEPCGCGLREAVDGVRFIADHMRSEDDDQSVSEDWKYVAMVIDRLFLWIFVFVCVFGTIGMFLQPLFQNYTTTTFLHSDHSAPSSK

[11] = molecular target: T3, Lymphocyte Cell-Specific Protein-Tyrosine Kinase (Src family) (LCK) (Homo sapiens, UniProt P06239); experiment: Kinase binding assay (KINOMEscan); details: inhibitor, read-out: IC50 (μM) Antag./Blocker/Inhibitor
T3 construct: T7 phage fusion (most assays) or DNA tag for qPCR (the remaining kinases); made in house; host or cells: E. coli (BL21-derived, T7 phage display) or HEK-293

[12] = molecular target: norepinephrine transporter (Homo sapiens, UniProt P23975); experiment: Monoamine transporter uptake assay (Neurotransmitter Transporter Uptake Assay Kit), blocker format
Sequence of norepinephrine transporter (P23975 whole entry): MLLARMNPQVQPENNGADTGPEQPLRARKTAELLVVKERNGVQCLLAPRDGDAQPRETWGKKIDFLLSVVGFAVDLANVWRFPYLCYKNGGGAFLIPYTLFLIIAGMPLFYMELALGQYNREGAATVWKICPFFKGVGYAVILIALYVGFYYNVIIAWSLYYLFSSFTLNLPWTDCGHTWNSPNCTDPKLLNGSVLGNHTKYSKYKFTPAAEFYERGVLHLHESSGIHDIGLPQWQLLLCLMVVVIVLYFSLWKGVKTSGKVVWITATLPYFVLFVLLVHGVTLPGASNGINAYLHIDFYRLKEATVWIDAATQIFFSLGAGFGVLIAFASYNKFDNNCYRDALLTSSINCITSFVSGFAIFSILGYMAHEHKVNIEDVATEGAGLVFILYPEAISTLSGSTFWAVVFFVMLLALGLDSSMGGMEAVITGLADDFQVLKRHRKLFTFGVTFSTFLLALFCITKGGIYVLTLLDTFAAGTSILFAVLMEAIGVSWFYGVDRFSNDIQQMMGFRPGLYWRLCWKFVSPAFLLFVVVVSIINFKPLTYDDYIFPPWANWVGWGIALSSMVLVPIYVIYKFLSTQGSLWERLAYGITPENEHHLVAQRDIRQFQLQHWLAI

T1 sequence (P28222 whole entry): as the sequence (P28222 whole entry) above

CN(C)CCc1ccn2ccccc12 [28-12 oxalate, 2-(indolizin-1-yl)-N, N-dimethylethan-1-amine oxalate]
EC50 (5-HT1B receptors; 5-HT1B, cAMP, read-out: EC50 (μM) Agonist/Opener): 0.143 µM
EC50 (5-HT1B receptors; EC50, agonism of 5-HT1B receptors, ten concentrations up to 30 μM): ~0.143 µM
IC50 [1]: > 30 µM
IC50 [2]: 1.08 µM
EC50 [3]: > 30 µM
EC50 [4]: > 30 µM
EC50 [5]: > 30 µM
EC50 [6]: > 30 µM
IC50 [7]: > 30 µM
EC50 [8]: > 30 µM
EC50 [9]: > 30 µM
IC50 [10]: > 30 µM
IC50 [11]: > 30 µM
IC50 [12]: > 30 µM
